Data from patent US9943599B2, “Therapeutic applications of calcium electroporation to effectively induce tumor necrosis” (Herlev Hospital, priority 2011, dated 2018).

Tests used:
DC-3F cells = assay: ATP assay after calcium electroporation; type: cell-based, Chinese hamster
Description: DC-3F cells are electroporated as described in Example 1 with 1 mM calcium. Cells electroporated with HEPES buffer, non-electroporated cells with 1 mM calcium, and untreated cells are used as controls. Cell death induced by irreversible electroporation (8 pulses of 6.6 kV/cm with pulse duration of 99 μs) is used as […]. Cells are seeded in 96-well plates at a concentration of 3.1×10^4 cells/100 μl. Cells are lysed using Cell-Based Assay Lysis Buffer (Cayman Chemical, Ann Arbor, Mich.) and ATP content is determined after 1, 4 and 8 hours incubation by adding 100 μl rL/L Reagent (ENLITEN® ATP assay, Promega, Madison, Wis.) and measuring light emission using a luminometer (LUMIstar®, BMG biotechnology, Ortenberg, Germany).
Difference in ATP level after different treatments is assessed using two-way ANOVA with post least-squares-means test with Bonferroni correction for multiple comparisons.

[1] = test system: LPB (murine sarcoma) tumors; assay: Fraction of necrosis after calcium electroporation, LPB tumors; type: in vivo, NMRI-Foxn1^nu mice
Description: (§1) LPB, a murine sarcoma cell line, B16, a murine malignant melanoma cell line, MDA-MB231, human a breast cancer cell line, HT29, a human colon cancer cell line, and SW780, a human bladder cancer cell line were used for the in vivo experiment. The cells were tested by rapid MAP27 panel (Taconic, Hudson N.Y.) before use without signs of infection. 2×10^5 cells (B16), 8×10^5 cells (LPB), 2.5×10^6 cells (MDA-MB231), and 5×10^6 cells (HT29 and SW780) in 100 μl PBS were injected subcutaneously in the flank of NMRI-Foxn1^nu mice (Harlan, Indianapolis, Ind.) that were 9-11 weeks old. Mice were randomised at a tumor volume above 85 mm^3 and tumors were treated with injection of isotonic calcium-chloride solution (168 mM CaCI2) and electroporation (8 pulses of 1.0 kv/cm for 100 μs and a frequency of 1 Hz) using a 6 mm plate electrode and a square wave electroporator (CLINIPORATOR®, IGEA, Modena, Italy). Tumor volume was calculated as ab^2n/6, where a is the largest diameter and b is the largest diameter perpendicular to a. The injected volume was half of the tumor volume. […] The fraction of necrosis within the tumor was estimated from HE-sections by stereological point counting using a light microscope, evaluated by a pathologist, blinded with respect to treatment status.
(§2) The difference in fraction of necrosis at different time after treatment was assessed using student's t-test.

tumor on the heel joint = assay: Case study, calcium electroporation of canine tumor; type: in vivo, dog; conditions: 168 mM calcium chloride, 50% of tumor volume, 11 days after treatment
Description: A seven year old Danish Pointer dog with a tumor on the heel joint was treated with calcium electroporation. The tumor was injected with 168 mM calcium chloride solution in a total volume equivalent to 50% of the tumor volume calculated as ab^2n/6, where “a” is the largest diameter of the tumor and “b” is the largest diameter perpendicular to “a”. The calcium chloride solution was injected throughout the tumor to secure an even distribution of calcium in the tumor. After the calcium injection the tumor was electroporated (8 pulses of […] at 1.0 kV/cm and 1 Hz) using a needle electrode and a square wave electroporator (CLINIPORATOR®, IGEA, Modena, Italy). The tumor was photographed before and after the treatment.

[2] = test system: skin dermis and subcutis above MDA-MB231 tumor; assay: Normal tissue reaction, skin above the tumor; type: in vivo, NMRI-Foxn1nu mice; conditions: some of the mice treated with the high concentration and volume of calcium
Description: MDA-MB231, a human breast cancer cell line was used for the in vivo experiments. The cells were tested by rapid MAP27 panel (Taconic, Hudson N.Y.) before use without signs of infection. Cells were maintained in vitro as described in Example 1. 2.5×10^6 cells/100 μl PBS were injected subcutaneously in the flank of NMRI-Foxn1nu mice (Harlan, Indianapolis, Ind.). Tumor pieces were transplanted twice from donor mice to the flank of nude mice that were 13-19 weeks old. HYPNORM™-DORMICUM™ (fentanyl/fluanisone/midazolam; VetaPharma, Leeds, U K and Roche, Basel, Switzerland) was used for anesthesia complemented with RIMADYL® (Carprofen) (Pfizer ApS, Ballerup, Denmark) as well as lidocaine (Region Hovedstadens Apotek, Herlev, Denmark) in the incision. […] Tumor volume was calculated as ab2n/6, where “a” is the largest diameter and “b” is the largest diameter perpendicular to “a”. […] Estimation of normal tissue damages was evaluated semiquantitatively on HE-sections by light[ ]microscopy (LEICA® DM 2000 light microscope, Leica Microsystems, Wetzlar, Germany).
The presence of inflammation in the skin dermis and subcutis was scored from 1-3 (1=minimal, 2=moderate and 3=severe). Edema in the dermis, extravasations of erythrocytes and vasculitis was noted if present, but not scored.

[3] = test system: SW780 (human bladder cancer) tumors; assay: Fraction of necrosis after calcium electroporation, SW780 tumors; type: in vivo, NMRI-Foxn1^nu mice
Description: as §1, §2

[4] = 168 mM CaCl2, half tumor volume, electroporation, first days after treatment

## [Ca+2].[Cl-].[Cl-] [calcium chloride]
DC-3F cells; 1 mM calcium with electroporation, up to 8 hours after treatment
  ATP level, percent of control: 10.3%
DC-3F cells; 1 mM calcium without electroporation
  effect on ATP levels: does not affect ATP levels
[1]; [4]
  fraction of necrosis in tumors, course: progressive necrosis
[1]; 6 days after the treatment
  tumor re-growth: re-growth
Tumor on the heel joint
  necrosis of tumor: clinical signs of necrosis
  tumor size (photos): reduced in size
[2]
  ulceration above the tumor: ulceration above the tumor was seen
[3]; [4]
  fraction of necrosis in tumors, course: progressive necrosis
[3]; 6 days after the treatment
  tumor re-growth: re-growth
